Source: BindingDB's records for PubMed 39026645 (Tianjin University)

Biological target: T1, Polyphenol oxidase 4 (Agaricus bisporus, UniProt C7FF05)
T1 sequence (C7FF05 whole entry): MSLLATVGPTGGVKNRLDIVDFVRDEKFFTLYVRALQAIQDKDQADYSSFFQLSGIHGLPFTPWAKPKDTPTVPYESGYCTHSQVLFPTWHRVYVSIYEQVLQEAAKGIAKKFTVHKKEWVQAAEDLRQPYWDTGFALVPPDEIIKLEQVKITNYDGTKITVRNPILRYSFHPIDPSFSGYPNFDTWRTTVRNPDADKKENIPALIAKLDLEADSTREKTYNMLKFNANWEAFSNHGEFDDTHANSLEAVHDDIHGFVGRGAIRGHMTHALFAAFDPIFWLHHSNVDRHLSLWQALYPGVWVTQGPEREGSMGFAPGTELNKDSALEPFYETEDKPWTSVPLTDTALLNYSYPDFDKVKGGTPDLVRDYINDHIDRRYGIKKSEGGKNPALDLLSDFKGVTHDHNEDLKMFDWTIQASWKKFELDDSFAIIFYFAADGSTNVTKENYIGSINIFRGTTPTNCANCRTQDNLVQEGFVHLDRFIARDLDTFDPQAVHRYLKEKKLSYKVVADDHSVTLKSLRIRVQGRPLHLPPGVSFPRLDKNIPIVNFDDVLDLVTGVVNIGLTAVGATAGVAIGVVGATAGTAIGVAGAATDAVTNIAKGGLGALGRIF
Test: Inhibition of mushroom tyrosinase

`COc1c(O[C@@H]2O[C@H](CO)[C@@H](O)[C@H](O)[C@H]2O)cc2occ(-c3ccc(O)cc3)c(=O)c2c1O` [CHEBI:9428] gave an IC50 of 2.6 nM.
Compound `COc1c(O)cc2occ(-c3ccc(O)cc3)c(=O)c2c1O` [Tectorigenin] has an IC50 of 1.4 nM.
